From PubChem BioAssay (NCI) come the findings set out here.

Each structure is given as a SMILES string. Where “and” joins values, the source holds several entries; their conditions need not be identical. Equal entries are not always repeated.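 Cells were grown in 96-well plates and exposed to each compound for 48 hours at five concentrations; endpoints were interpolated linearly between bracketing concentrations, or set to the highest concentration if not reached. GI50 is the concentration that inhibits growth by half. TGI marks complete inhibition of growth.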 Where only a bound is given, the exact number is not on record here.

What all share (test): DTP human tumour cell line panel, 48 h
In experiment [1] the test system is 786-0 renal.
The subject of experiment [2] is ACHN renal.
In experiment [3] the test system is HT29 colon.
In experiment [4] the test system is MOLT-4 leukemia.
Experiment [5] deals with PC-3 prostate.
Experiment [6] deals with RXF 393 renal.
Experiment [7] concerns SF-295 CNS.
The test system of experiment [8] is SF-539 CNS.
Experiment [9] deals with SNB-19 CNS.
Experiment [10] relates to U251 CNS.

On to `CCN(CC)CCOc1ccc(Nc2ncc3cc(-c4ccc(O)cc4)c(=O)n(C)c3n2)cc1`, for which the GI50 in [1] was 0.391 µM; in experiment [2], 0.0618 µM; in [3], 0.379 µM; in experiment [4], 0.2 µM; in experiment [5] it was 0.831 µM; in [6], 147 nM. Also, the GI50 in [7] is 13.9 µM; in experiment [8] it was 0.629 µM; in [9], 8.57 µM; in experiment [10], 1.4 µM. Besides, the concentration for total growth inhibition (TGI) was 2.65 µM in [1]; 17.5 µM in [2]; 2.79 µM in [3]; 21.8 µM in experiment [4]; 24.6 µM in experiment [5]; 1.67 µM in [6]. The TGI in experiment [7] was 30.4 µM; in [8] it was 11.6 µM; in experiment [9], 27.5 µM; in [10], 2.81 µM.

On to `C/C=C(\C)C(=O)N[C@H]1[C@@H](OC(C)=O)C[C@]2(C)C3CC[C@@]4(C)C(CC[C@@H]4C(C)N(C)C)C3CCC2[C@H]1O` (stereo partly drawn), for which the GI50 in [1] was 5.22 µM; in [2] it was 5.74 µM; in experiment [3] it was 0.738 µM; in experiment [4], 6.19 µM; in [5], 2.88 µM; in experiment [6] it was 1710 nM. Further, the GI50 is 3.44 µM in experiment [7], 1.87 µM in experiment [8], 13.6 µM in experiment [9] and 4.48 µM in experiment [10]. Further, the TGI was 16.3 µM in experiment [1]; 17.9 µM in [2]; 6.55 µM in experiment [3]; 33.8 µM in experiment [4]; 24.2 µM in experiment [5]; 14.4 µM in experiment [6]. Moreover, the TGI was 14.9 µM in experiment [7], 4.97 µM in experiment [8], 28.9 µM in experiment [9] and 18.3 µM in experiment [10].

For `CC(=O)C1CC2(c3ccc(C)cc3)C(c3ccc(C)cc3)=C(c3ccc(C)cc3)C1(c1ccc(C)cc1)S2=O` (stereo not drawn), the GI50 in experiment [1] was over 100 µM; in [2] it was over 100 µM; in experiment [3] it was over 100 µM; in experiment [4] it was over 100 µM; in experiment [5], over 100 µM; in [6], over 100000 nM. For the same molecule, the GI50 was 85 µM in experiment [7], over 100 µM in experiment [8], over 100 µM in experiment [9] and over 100 µM in experiment [10]. In addition, the TGI in experiment [1], in experiment [2], in experiment [3], in experiment [4], in [5] and in [6] was over 100 µM each time. The TGI in [7], in experiment [8], in [9] and in experiment [10] was over 100 µM each time.

For the molecule `N#CC1=C(N)N=C(N2CCCCC2)C(C#N)C12Nc1ccccc1S2` (stereo not drawn), the GI50 in experiment [1] was 26.5 µM; in experiment [2] it was 27.1 µM; in experiment [3], 29.8 µM; in experiment [4] it was over 100 µM; in [5], 50.5 µM; in experiment [6], 27000 nM. Further, the GI50 was 37.7 µM in experiment [7], 30.7 µM in experiment [8], 41 µM in [9] and 17 µM in experiment [10]. Moreover, the TGI in experiment [1] was 79.2 µM; in experiment [2] it was 76.4 µM; in [3] it was over 100 µM; in experiment [4] it was over 100 µM; in [5], over 100 µM; in experiment [6] it was 65.1 µM. The TGI in [7] was over 100 µM; in experiment [8], 75.4 µM; in experiment [9], over 100 µM; in experiment [10], over 100 µM.

As for `C=C(Cl)COC(=O)Nc1cccc(Cl)c1`, the TGI in experiment [1] is 92.2 µM; in [2], over 100 µM; in experiment [3] it was over 100 µM; in experiment [4] it was over 100 µM; in experiment [5], 84.6 µM; in [6], 77.6 µM. For the same molecule, the TGI in experiment [7] is 96.2 µM; in experiment [8] it was over 100 µM; in [9], over 100 µM; in [10], over 100 µM.

`O=C1/C(=C/c2ccc(O)c([N+](=O)[O-])c2)CCC/C1=C\c1ccc(O)c([N+](=O)[O-])c1`: the GI50 in [1] is 43.7 µM; in experiment [2], 20.4 µM; in [3], 19 µM; in [4], 17.4 µM; in experiment [5] it was 9.12 µM; in [6] it was 1530 nM. Besides, the results for the GI50 in [9] and in experiment [10] were 17.1 µM and 14 µM, respectively. Moreover, the TGI was 25.5 µM and > 100 µM in experiment [1]; 14.8 µM and 38.5 µM in experiment [2]; 30.7 µM and 37.6 µM in experiment [3]; 50 µM and 47 µM in [4]; 50 µM and 22.8 µM in [5]; 19.6 µM and 5.91 µM in [6]. Further, the TGI in [7] was 50 µM and > 100 µM; in experiment [8], 50 µM; in [9], 28.7 µM and 35.2 µM; in experiment [10], 18.3 µM and 26.9 µM.

Take `CCCCCNC(=O)[C@@H]1CCCN2C(=O)CC[C@H](NC(=O)[C@H](Cc3ccc(OP(=O)(O)O)cc3)NC(C)=O)C(=O)N12`: the GI50 was over 25 µM in experiment [1]; over 25 µM in experiment [2]; over 25 µM in experiment [3]; over 25 µM in [4]; over 25 µM in experiment [5]; over 25000 nM in [6]. The GI50 in experiment [7], in experiment [8], in experiment [9] and in experiment [10] was over 25 µM throughout. In addition, the TGI in [1], in experiment [2], in experiment [3], in experiment [4], in experiment [5] and in experiment [6] was over 25 µM throughout. Moreover, the total growth inhibition concentration (TGI) in experiment [7], in experiment [8], in experiment [9] and in experiment [10] was over 25 µM each time.

Take `CN(C)NC1=NS(=O)(=O)c2cc3c(cc2S1)N(N(C)C)C(=O)c1cc2c(cc1N(N(C)C)C3=O)SC(NN(C)C)=NS2(=O)=O`: the TGI in experiment [1], in experiment [2], in experiment [3], in [4], in [5] and in experiment [6] was over 10 µM throughout. Moreover, the TGI in experiment [7], in experiment [8], in [9] and in [10] was over 10 µM throughout.

What is called GI50 is the concentration at which growth is held to half of that of the control. Usually TGI stands for the concentration at which net growth stops. Read a high TGI as lower sensitivity of the cells.
